Patent publication US20250195521A1 (Revolution Medicines, Inc., priority 2020, published 2025)
Like-named read-outs stand apart in the source and are kept apart here.

Columns and labels:
NCI-H358 (K-Ras G12C) = experiment: CellTiter-Glo cell viability assay, NCI-H358; format: cell-based, human
Method in brief: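 Viability read-out was luminescent (CellTiter-Glo) on day 5 of compound exposure in K-Ras G12C NCI-H358 cells. Values were expressed as percent of mean DMSO signal and fitted with a four-parameter logistic curve.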

[1] = tested on: K-Ras G12C (NCI-H358 cells); experiment: Potency assay: pERK in NCI-H358 cells; format: cell-based, human; details: read-out: pERK EC50 (H358 KRAS G12C)
Method in brief: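 Cells plated the day before were exposed for 4 h at 37° C, 5% CO2 to a 10-point, 3-fold DMSO dilution series (10 mM top stock), in duplicate. Phospho-ERK was read by AlphaLISA SureFire Ultra or by In-Cell Western with DRAQ5 DNA stain, and IC50 came from a 4-parameter sigmoidal fit.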

[2] = Homo sapiens, NCI-H358, 120 h, 5-day treatment, read-out: H358 Cell Viability assay data (K-Ras G12C, IC50)
[3] = Homo sapiens, NCI-H358 cells, 4 hours
[4] = Homo sapiens, NCI-H358, 120 h, read-out: H358 Cell Viability assay data (K-Ras G12C, IC50, uM), 5-day treatment
[5] = 5-day treatment, read-out: H358 Cell Viability assay data (K-Ras G12C, IC50)

Structure (SMILES) | IC50 (NCI-H358 (K-Ras G12C); [2]) | other results
C=CC(=O)N1CC[C@H](C(=O)N(C)[C@H](C(=O)N[C@H]2Cc3cccc(c3)-c3ccc4c(c3)c(c(-c3cccnc3[C@H](C)OC)n4CC)CC(C)(C)COC(=O)[C@@H]3CCCN(N3)C2=O)[C@@H](C)C(F)(F)F)C1 (atropisomer, axis not shown) [Compound A640] | 0.01 to 0.1 µM | EC50 [1, 3]: < 5000 nM
C=CC(=O)N1CC[C@H](C(=O)N(C)[C@H](C(=O)N[C@H]2Cc3cc(N)cc(c3)-c3ccc4c(c3)c(c(-c3ccccc3COC)n4CC)CC(C)(C)COC(=O)[C@@H]3CCCN(N3)C2=O)C(C)C)C1 [Compound A2] | > 10 µM | EC50 [1, 3]: < 5000 nM
CCn1c(-c2cccnc2[C@H](C)OC)c2c3cc(ccc31)-c1cc(O)cc(c1)C[C@H](NC(=O)[C@H](C(C)C)N(C)C(=O)C1COC1)C(=O)N1CCC[C@H](N1)C(=O)OCC(C)(C)C2 [Compound A18] | 0.1 to 1 µM | EC50 [1, 3]: < 5000 nM
C=CC(=O)N1CC[C@H](C(=O)N(C)[C@H](C(=O)N[C@H]2Cc3cc(O)cc(c3)-c3ccc4c(c3)c(c(-c3ccc(CC(=O)O)nc3)n4CC)CC(C)(C)COC(=O)[C@@H]3CCCN(N3)C2=O)C(C)C)C1 [Compound A21] | – | IC50 (NCI-H358 (K-Ras G12C); [4]): > 10 µM; EC50 ([1]; Homo sapiens, NCI-H358, 4 h): < 5000 nM
C=CC(=O)N1CC[C@H](C(=O)N(C)[C@H](C(=O)N[C@H]2Cc3cc(O)cc(c3)-c3ccc4c(c3)c(c(-c3ncccc3[C@H](C)OC)n4CC)CC(C)(C)COC(=O)[C@@H]3CCCN(N3)C2=O)C(C)C)C1 [Compound A22] | – | IC50 (NCI-H358 (K-Ras G12C); [4]): 0.01 to 0.1 µM; EC50 ([1]; Homo sapiens, NCI-H358, 4 h): < 5000 nM
C=CC(=O)N1CC[C@H](C(=O)N(C)[C@H](C(=O)N[C@H]2Cc3cc(O)cc(c3)-c3ccc4c(c3)c(c(-c3ccccc3CCOC)n4CC)CC(C)(C)COC(=O)[C@@H]3CCCN(N3)C2=O)C(C)C)C1 [Compound A24] | > 10 µM | EC50 [1, 3]: < 5000 nM
CCn1c(-c2cnccc2COC)c2c3cc(ccc31)-c1cc(O)cc(c1)C[C@H](NC(=O)[C@H](C(C)C)N(C)C(=O)N1CC(OC)C1)C(=O)N1CCC[C@H](N1)C(=O)OCC(C)(C)C2 [Compound A30] | 0.01 to 0.1 µM | EC50 [1, 3]: < 5000 nM
C=CC(=O)N1CC[C@H](C(=O)N(C)[C@H](C(=O)N[C@H]2Cc3cc(O)cc(c3)-c3ccc4c(c3)c(c(-c3ccccc3CCOC)n4C(C)(C)C#N)CC(C)(C)COC(=O)[C@@H]3CCCN(N3)C2=O)C(C)C)C1 [Compound A34] | – | IC50 (NCI-H358 (K-Ras G12C); [5]): 0.01 to 0.1 µM; EC50 ([1]; NCI-H358 cells, 4 hours): < 5000 nM
CCn1c(-c2cnccc2COC)c2c3cc(ccc31)-c1cc(O)cc(c1)C[C@H](NC(=O)[C@H](C(C)C)N(C)C(=O)CN1CCOCC1)C(=O)N1CCC[C@H](N1)C(=O)OCC(C)(C)C2 [Compound A65] | 0.1 to 1 µM | EC50 [1, 3]: < 5000 nM
CCn1c(-c2ccccc2CCOC)c2c3cc(ccc31)-c1cc(O)cc(c1)C[C@H](NC(=O)[C@H](C(C)C)N(C)C(=O)CCN)C(=O)N1CCC[C@H](N1)C(=O)OCC(C)(C)C2 [Compound A70] | 0.01 to 0.1 µM | EC50 [1, 3]: < 5000 nM
CO[C@@H](C)c1ncccc1-c1nc2ccc3cn2c1CC(C)(C)COC(=O)[C@@H]1CCCN(N1)C(=O)[C@@H](NC(=O)[C@H](C(C)C)N(C)C(=O)[C@H]1CCN(C(=O)C#CC(C)(C)N(C)C)C1)Cc1cccc-3c1 [Compound A311] | > 10 µM | –
CCn1c(-c2cccnc2[C@H](C)OC)c2c3cc(ccc31)-c1csc(n1)C[C@H](NC(=O)C1(F)COC1)C(=O)N1CCC[C@H](N1)C(=O)OCC(C)(C)C2 [Compound A320] | 0.01 to 0.1 µM | –
C=CC(=O)Nc1ccc(C(=O)N(C)[C@H](C(=O)N[C@H]2Cc3cc(O)cc(c3)-c3ccc4c(c3)c(c(-c3cccnc3[C@H](C)OC)n4CC)CC(C)(C)COC(=O)[C@@H]3CCCN(N3)C2=O)C(C)C)cn1 [Compound A336] | – | IC50 (NCI-H358 (K-Ras G12C); [5]): < 0.01 µM
C=CC(=O)N1CC[C@H](C(=O)N(C)[C@H](C(=O)N[C@H]2Cc3nc(cs3)-c3ccc4c(c3)c(c(-c3cc(C5=CCN(C)CC5)cnc3[C@H](C)OC)n4CC)CC(C)(C)COC(=O)[C@@H]3CCCN(N3)C2=O)C(C)C)C1 [Compound A520] | – | IC50 (NCI-H358 (K-Ras G12C); [5]): < 0.01 µM
C=CC(=O)N1CC[C@H](C(=O)N(C)[C@H](C(=O)N[C@H]2Cc3cccc(c3)-c3ccc4c(c3)c(c(-c3cc(CN(C)C)cnc3[C@H](C)OC)n4CC)CC(C)(C)COC(=O)[C@@H]3CCCN(N3)C2=O)C(C)C)C1 [Compound A523] | – | IC50 (NCI-H358 (K-Ras G12C); [5]): 0.1 to 1 µM

The next lines start with results.

IC50 (NCI-H358 (K-Ras G12C); [2]) | Structure (SMILES) | other results
< 0.01 µM | CCn1c(-c2cccnc2[C@H](C)OC)c2c3cc(ccc31)-c1csc(n1)C[C@H](NC(=O)[C@H](C(C)C)N(C)C(=O)N1CC[C@]3(CCN(C)C3=O)C1)C(=O)N1CCC[C@H](N1)C(=O)OCC(C)(C)C2 (single isomer, unassigned) [Compound A461] | EC50 [1, 3]: < 5000 nM
0.1 to 1 µM | C=CC(=O)N1CC[C@H](C(=O)N(C)[C@H](C(=O)N[C@H]2Cc3nc(cs3)-c3ccc4c(n3)c(c(-c3cccnc3[C@H](C)OC)n4CC)CC(C)(C)COC(=O)[C@@H]3CCCN(N3)C2=O)C(C)C)C1 [Compound A347, (2S)—N-[(7S,13S)-21-ethyl-20-{2-[(1S)-1-methoxyethyl]pyridin-3-yl}-17,17-dimethyl-8,14-dioxo-15-oxa-4-thia-9,21,25,27,28-pentaazapentacyclo[17.5.2.1^{2,5}0.1^{9,13}0.0^{22,26}]octacosa-1 (25),2,5 (28), 19,22 (26),23-hexaen-7-yl]-3-methyl-2-{N-methyl-1-[(3S)-1-(prop-2-enoyl)pyrrolidin-3-yl]formamido}butanamide] | –
< 0.01 µM | CCn1c(-c2cccnc2[C@H](C)OC)c2c3cc(ccc31)-c1csc(n1)C[C@H](NC(=O)[C@H](C(C)C)N(C)C(=O)N1CC(N(C)C(=O)C#CC(C)(C)N3CCC3)C1)C(=O)N1CCC[C@H](N1)C(=O)OCC(C)(C)C2 [Compound A379] | –
> 10 µM | C=CC(=O)N1CC[C@H](C(=O)N(C)[C@H](C(=O)N[C@H]2C[C@H]3CN(CCCO3)c3ccc4c(c3)c(c(-c3cccnc3[C@H](C)OC)n4CC)CC(C)(C)COC(=O)[C@@H]3CCCN(N3)C2=O)C(C)C)C1 [Compound A405] | –
> 10 µM | C=CC(=O)N1CC[C@H](C(=O)N(C)[C@H](C(=O)NC2C[C@H]3CN(CCCO3)c3ccc4c(c3)c(c(-c3cccnc3[C@H](C)OC)n4CC)CC(C)(C)COC(=O)[C@@H]3CCCN(N3)C2=O)C(C)C)C1 (some centres unmarked) [Compound A429] | –
> 10 µM | C=CC(=O)N1CC(OCC(C(=O)N[C@H]2Cc3cc(cc(C(F)F)c3)-c3ccc4c(c3)c(c(-c3cccnc3[C@H](C)OC)n4CC)CC(C)(C)COC(=O)[C@@H]3CCCN(N3)C2=O)C(C)C)C1 (some centres unmarked) [Compound A450] | –
0.01 to 0.1 µM | CCn1c(-c2cccnc2[C@H](C)OC)c2c3cc(ccc31)-c1csc(n1)C[C@H](NC(=O)[C@H](C(C)C)N(C)C(=O)N1CC([C@H](C)CO)C1)C(=O)N1CCC[C@H](N1)C(=O)OCC(C)(C)C2 [Compound A478] | –
0.1 to 1 µM | CCn1c(-c2cccnc2[C@H](C)OC)c2c3cc(ccc31)-c1csc(n1)C[C@H](NC(=O)[C@H](C(C)C)N(C)C(=O)N1CC3(CC(N4CCOCC4)C3)C1)C(=O)N1CCC[C@H](N1)C(=O)OCC(C)(C)C2 [Compound A486] | –
0.01 to 0.1 µM | CCn1c(-c2cccnc2[C@H](C)OC)c2c3cc(ccc31)-c1csc(n1)[C@@H](O)[C@H](NC(=O)[C@H](C(C)C)N(C)C(=O)N1CC(N(C)C)C1)C(=O)N1CCC[C@H](N1)C(=O)OCC(C)(C)C2 [Compound A489] | –
> 10 µM | C=CC(=O)N1CC[C@H](C(=O)N(C)[C@H](C(=O)N[C@H]2CCC(=O)N(C)Cc3ccc4c(c3)c(c(-c3cccnc3[C@H](C)OC)n4CC)CC(C)(C)COC(=O)[C@@H]3CCCN(N3)C2=O)C(C)C)C1 [Compound A500] | –
0.1 to 1 µM | C=CC(=O)N1CC[C@H](C(=O)N(C)[C@H](C(=O)N[C@H]2Cc3cccc(c3)-c3ccc4c(c3)c(c(-c3cc(C5=CCN(C)CC5)cnc3[C@H](C)OC)n4CC)CC(C)(C)COC(=O)[C@@H]3CCCN(N3)C2=O)C(C)C)C1 [Compound A514] | –
< 0.01 µM | C=CC(=O)N1CC[C@H](C(=O)N(C)[C@H](C(=O)N[C@H]2Cc3cccc(c3)-c3ccc4c(c3)c(c(-c3cc(C5CCN(C)CC5)cnc3[C@H](C)OC)n4CC)CC(C)(C)COC(=O)[C@@H]3CCCN(N3)C2=O)C(C)C)C1 [Compound A515] | –
0.01 to 0.1 µM | CCn1c(-c2cccnc2[C@H](C)OC)c2c3cc(ccc31)-c1csc(n1)C[C@H](NC(=O)[C@H](C(C)C)N(C)C(=O)N1C3CC1CN(C)C3)C(=O)N1CCC[C@H](N1)C(=O)OCC(C)(C)C2 [Compound A541] | –
< 0.01 µM | CO[C@@H](COC1CN(C(=O)C#CC(C)(C)N(C)C)C1)C(=O)N[C@H]1Cc2cccc(c2)-c2ccc3c(c2)c(c(-c2cccnc2[C@H](C)OC)n3CC(F)(F)F)CC(C)(C)COC(=O)[C@@H]2CCCN(N2)C1=O [Compound A556] | –
< 0.01 µM | CCn1c(-c2cccnc2[C@H](C)OC)c2c3cc(ccc31)-c1cccc(c1)C[C@H](NC(=O)[C@H](C(C)C)N1CC[C@]3(CCN(C(=O)C#C[C@]4(N(C)C)CCOC4)C3)C1=O)C(=O)N1CCC[C@H](N1)C(=O)OCC(C)(C)C2 [Compound A559] | –
